The values that follow come from US7544805B2 (Chemagis Ltd., priority 2004, dated 2009).

The nature of data set [1]: Bulk density of the residue. The data set is classed as physicochemical. To be noted: residue after drying. From the text:
The solution was then freeze dried (lyophilized), producing a residue with a bulk density of 0.061 gram/cm^3.
The solution was then spray-dried, producing a residue with a bulk density of 0.269 gram/cm^3.

The nature of data set [2]: Retention of amorphous character after pressing (powder X-ray diffraction). Format: physicochemical. To be noted: pressed at 10,000 Kg/cm^3 for 1 minute; X-ray diffractogram. As for the experimental part: X-ray diffraction data were acquired using a PHILIPS X-ray diffractometer model PW1050-70. System description: Kα1=1.54178 Å, voltage 40 kV, current 28 mA, diversion slit=1°, receiving slit=0.2 mm, scattering slit=1° with a Graphite monochromator. Experiment parameters: pattern measured between 2θ=4° and 2θ=30° with 0.05° increments; count time was 0.5 second per increment.
The X-ray analysis of the residue gave a featureless diffractogram with a broad peak centered at 2θ about 22°, showing the residue was amorphous. The residue was pressed at 10,000 Kg/cm^3 for 1 minute.
The residue was then pressed at 10,000 Kg/cm3 for 1 minute.

In data set [1], `CC(C)(O)c1ccccc1CC[C@@H](SCC1(CC(=O)[O-])CC1)c1cccc(/C=C/c2ccc3ccc(Cl)cc3n2)c1.[Na+]` [Example 1, Amorphous Montelukast Sodium] returned a bulk density of 0.269 gram/cm^3. The “amorphous character after pressing” value in data set [2] was “remained amorphous”.

On to `CC(C)(O)c1ccccc1CC[C@@H](SCC1(CC(=O)[O-])CC1)c1cccc(/C=C/c2ccc3ccc(Cl)cc3n2)c1.[Na+]` [Reference Example 1, Amorphous Montelukast Sodium, reference compound], for which the bulk density in data set [1] came out at 0.061 gram/cm^3.
